# Tested on: Botrytis cinerea
# Assay: Necrotic leaf disc bioassay with interrupted wet period (laboratory)
# Format: cell-based
# Conditions: Table 2, necrotic kiwifruit leaf tissues, repeat bioassay
# Protocol: Discs (dia. 21 mm) were cut from mature unsprayed grape or kiwifruit leaves selected at random and placed between sheets of cardboard. The discs were gently dried at 40° C. for approximately 9 hours and then washed under running water for 10 minutes to remove any soluble nutrients. The leaf discs were then blot dried once more on sterile paper towels, dried at 40° C. for 6 hours, then sealed in plastic specimen jars, prior to sterilization by gamma-irradiation (4Mrad).
# Isolates were maintained on oatmeal agar (30 g finely ground oatmeal plus 20 g agar per litre of water) and incubated for 2 to 4 weeks at 20° C. illuminated according to a 12 hours day/night cycle. Fungal propagules were washed from the sporulating agar plates using sterile 0.01% (v/v) TWEEN®80 (polyoxyethylenesorbitan monooleate) in distilled water. […]
# High humidity incubation was interrupted by transferring the leaf disks from the humidity chambers to open petri dishes containing 2 layers of sterile dry (Whatman) filter disks. […] The area of leaf disk tissue with B. cinerea sporulation was assessed visually. […]
# Prior to analysis of variance, all data were arcsin transformed using an angular transformation to stabilise the variance and LSD values were calculated for purposes of mean separation […]
smiles,measurement,value
CC(C)NC(=O)N1CC(=O)N(c2cc(Cl)cc(Cl)c2)C1=O [iprodione],% coverage of necrotic leaf tissue by B. cinerea conidiophores,20%
same,"Antagonist efficacy, percentage reduction of B. cinerea conidiophores compared to the B. cinerea control treatment",20%
